Residues, ends and D or L forms follow the SMILES beside them.
What was measured:
[1] = target: LL-37, cathelicidin C-terminal antimicrobial peptide (UniProt P49913); assay: cell-based or functional assay
collagenase [2] = assay: cell-based or functional assay
tyrosinase [3] = assay: cell-based or functional assay
[4] = system: IL-6 release induced by LL-37 in primary human keratinocytes; assay: Inhibition of the release of IL-6 induced by LL-37 in primary human keratinocytes (ELISA); type: cell-based; details: carrier = 100%
Description: (§1) Solutions of the compounds of the invention were prepared in Eppendorf tubes at the desired concentrations in complete Epilife® medium with and without LL-37 at 50 μg/mL in a final volume of 250 μL. The mixtures were incubated in rotation for 1 hour at room temperature. After the preincubation hour the samples were collected and they were given a quick pulse in the centrifuge to push all the solution to the bottom of the tube. Without removing the incubation medium, it was added to the 50 μL/well cells of the previous mixtures in quadruplicate and the plate was incubated at 37° C. in a CO2 incubator for 1 hour. After the hour of incubation, 50 μL/well of complete Epilife® medium were added. They were incubated for another 5 hours to allow the release of pro-inflammatory cytokines induced by LL-37 for their subsequent quantification by ELISA. After the 5 hours, the […] of supernatants were collected with the multi-channel pipette and passed to a new 96-well plate and the quantity of IL-6 and IL-8 released was determined by the Human IL-6 ELISA Ready-SET-GO!® and Human IL-8 ELISA Ready-SET-GO!® commercial kits (eBioscience, Inc.) following the supplier's instructions. The absorbency of each well was determined by reading a Multiskan Ascent Reader spectrophotometer at 450 nm correcting for each determination with its corresponding reading at 570 nm. The standardized relative levels of IL-6 and IL-8 were calculated with regard to the absorbency corresponding to the treatment of the cells with carrier. Next, the total number of cells per well was quantified with Cristal Violeta, in order to be able to calculate the percentage of interleukins released per cell.
(§2) In table 4 the results obtained from the release of IL-8 are detailed.

[5] = system: IL-8 release induced by LL-37 in primary human keratinocytes; assay: Inhibition of the release of IL-8 induced by LL-37 in primary human keratinocytes (ELISA); type: cell-based; details: carrier = 100%
Description: as §1, §2

tyrosinase [6] = assay: Anti-tyrosinase activity, L-DOPA substrate; type: biochemical
Description: Different concentrations of the peptide […]-OH (Ac-(SEQ ID NO: 16)-OH) were incubated in a 96-well plate together with L-DOPA in a HEPES buffer for 30 minutes at 37° C. After incubation, the tyrosinase enzyme was added and incubated for 10 minutes. The reaction was stopped freezing the plate at -20° C. for 5 minutes, after which the absorbency was measured at λexc=490 nm in a microplate reader. As a positive control kojic acid was added, a substance with known anti-tyrosinase activity.

[7] = system: human epidermal melanocytes; assay: Inhibition of melanogenesis in human epidermal melanocytes; type: cell-based; details: repeated treatment to day 10, control (culture medium) = 100
Description: Primary human melanocytes were cultivated in medium 254 supplemented by HMGS and antibiotics. The cells were grown for 72 hours after which the medium was changed to 254 supplemented by HMGS-2 and antibiotics. The cells were grown until confluence for 2 weeks, changing the medium every 2-3 days. After two weeks, the cells were trypsinized and seeded in 6-well plates. After being incubated for a whole night at 37° C. and 5% of CO2, the first treatment with the peptide was carried out at different concentrations. As a negative control, only medium was added. The treatment was repeated on days 3, 6, 8 and 10, after which the cells were trypsinized and the number counted with a cell counter. Melanin was quantified by measuring the absorbency at 450 nm with a microplate reader and the value was standardized with regard to the total number of cells per well, expressed as picograms of melanin per cell from a calibration line prepared with synthetic melanin dissolved in 1 N NaOH with 10% DMSO.

collagenase [8] = assay: Anti-collagenase activity, fluorescein-derivatized gelatin; type: biochemical; details: collagenase 0.4 U/mL, 2 hours
Description: Different concentrations of the peptide Ac-L-Ala-L-Thr-L-Asn-L-Thr-OH (Ac-(SEQ ID NO: 16)-OH) were incubated in a 96-well plate together with fluorescein-derivatized gelatin, a fluorescent marker. Next, collagenase (0.4 U/mL) was added and incubated at room temperature protected from sunlight for 2 hours, after which the fluorescence (λexc=495 nm and λem=515 nm) was measured at different points, thus the breakage in the derivatized gelatin could be quantified. As a positive control 1,10-phenanthroline was used, a metal chelator which acts as an inhibitor of metalloproteases.

[9] = peptide 0.025 mg/mL + LL-37 0.05 mg/ml
[10] = peptide 0.1 mg/mL + LL-37 0.05 mg/ml
[11] = peptide 0.5 mg/mL + LL-37 0.05 mg/ml

“Ac-L-Ser-L-Val-L-Arg-L-Val-L-Ala-L-Val-NH2 (Ac-(SEQ ID NO: 2)-NH2) (peptide)” showed a % IL-6 released by primary human keratinocytes (ELISA), peptide 0.025 mg/mL + LL-37 0.05 mg/ml; carrier 100%, LL-37 alone 122.28% [1] of 108%, a % IL-6 released by primary human keratinocytes (ELISA), peptide 0.1 mg/mL + LL-37 0.05 mg/ml; carrier 100%, LL-37 alone 122.28% [1] of 96% and a % IL-6 released by primary human keratinocytes (ELISA), peptide 0.5 mg/mL + LL-37 0.05 mg/ml; carrier 100%, LL-37 alone 122.28% [1] of 93.2%. For the same compound, the % IL-8 released by primary human keratinocytes (ELISA), peptide 0.025 mg/mL + LL-37 0.05 mg/ml; carrier 100%, LL-37 alone 142.65% [1] was 133%, the % IL-8 released by primary human keratinocytes (ELISA), peptide 0.1 mg/mL + LL-37 0.05 mg/ml; carrier 100%, LL-37 alone 142.65% [1] was 125% and the % IL-8 released by primary human keratinocytes (ELISA), peptide 0.5 mg/mL + LL-37 0.05 mg/ml; carrier 100%, LL-37 alone 142.65% [1] was 109%.
“Ac-L-Ala-L-Thr-L-Asn-L-Thr-OH (Ac-(SEQ ID NO: 16)-OH) (peptide)” gave a % collagenase inhibition (cleavage of fluorescein-derivatized gelatin, collagenase 0.4 U/mL), peptide 2 mg/mL (collagenase [2]) of 29.2%, a % collagenase inhibition (cleavage of fluorescein-derivatized gelatin, collagenase 0.4 U/mL), peptide 10 mg/mL (collagenase [2]) of 100% and a % IL-6 released by primary human keratinocytes (ELISA), peptide 0.025 mg/mL; carrier 100%, LL-37 0.05 mg/ml alone 122.28% [1] of 107%. It also gave a % IL-6 released by primary human keratinocytes (ELISA), peptide 0.1 mg/mL + LL-37 0.05 mg/ml; carrier 100%, LL-37 alone 122.28% [1] of 94.7%, a % IL-6 released by primary human keratinocytes (ELISA), peptide 0.5 mg/mL + LL-37 0.05 mg/ml; carrier 100%, LL-37 alone 122.28% [1] of 92.9% and a % IL-8 released by primary human keratinocytes (ELISA), peptide 0.025 mg/mL + LL-37 0.05 mg/ml; carrier 100%, LL-37 alone 142.65% [1] of 133%. The % IL-8 released by primary human keratinocytes (ELISA), peptide 0.1 mg/mL + LL-37 0.05 mg/ml; carrier 100%, LL-37 alone 142.65% [1] was 125%, the % IL-8 released by primary human keratinocytes (ELISA), peptide 0.5 mg/mL + LL-37 0.05 mg/ml; carrier 100%, LL-37 alone 142.65% [1] was 109% and the % tyrosinase inhibition (L-DOPA oxidation, absorbance 490 nm), peptide 2 mg/mL (tyrosinase [3]) was 38.2%. For the same compound, the % tyrosinase inhibition (L-DOPA oxidation, absorbance 490 nm), peptide 3 mg/mL (tyrosinase [3]) was 76% and the % tyrosinase inhibition (L-DOPA oxidation, absorbance 490 nm), peptide 4 mg/mL (tyrosinase [3]) was 86.5%.
`CC(=O)N[C@@H](C)C(=O)N[C@H](C(=O)N[C@@H](CC(N)=O)C(=O)N[C@H](C(=O)O)[C@@H](C)O)[C@@H](C)O` [Ac-L-Ala-L-Thr-L-Asn-L-Thr-OH] (Ac-ATNT-OH) was tested, and the “% IL-6” value [4, 9] was 107.25%, the “% IL-6” value [4, 10] was 94.65% and the “% IL-6” value [4, 11] was 92.90%. The “% IL-8” value [5, 9] was 132.70%, the “% IL-8” value [5, 10] was 124.76% and the “% IL-8” value [5, 11] was 109.39%. For the same compound, the “% tyrosinase inhibition” value (tyrosinase [6]; 2 mg/mL) was 38.23%, the “% tyrosinase inhibition” value (tyrosinase [6]; 3 mg/mL) was 76.01% and the “% tyrosinase inhibition” value (tyrosinase [6]; 4 mg/mL) was 86.45%. The “% melanin (pg/cel)” value ([7]; 0.25 mg/mL) was 45.7 ± 3.2%, the “% melanin (pg/cel)” value ([7]; 0.625 mg/mL) was 55.8 ± 2.8% and the “% collagenase inhibition” value (collagenase [8]; 2 mg/mL) was 29.21%. For the same compound, the “% collagenase inhibition” value (collagenase [8]; 10 mg/mL) was 100%.
For “LL-37: cathelicidin C-terminal antimicrobial peptide, used to induce release of IL-6 and IL-8 (LLGDFFRKSKEKIGKEFKRIVQRIKDFLRNLVPRTES; Antibacterial peptide LL-37; UniProt P49913 134-170, looked up) [reference compound]”, the “% IL-6” value ([4]; LL-37 0.05 mg/ml alone (positive control)) was 122.28% and the “% IL-8” value ([5]; LL37 0.05 mg/ml alone (positive control)) was 142.65%.
With `c1cnc2c(c1)ccc1cccnc12` [1,10-phenanthroline, reference compound] the “% collagenase inhibition” value (collagenase [8]; 40 μg/mL) was 95.19%.
In the case of “Ac-L-Ser-L-Val-L-Arg-L-Val-L-Ala-L-Val-NH2 (Ac-SVRVAV-NH2)”, the “% IL-6” value [4, 9] was 108.35%, the “% IL-6” value [4, 10] was 95.96% and the “% IL-6” value [4, 11] was 93.15%. The “% IL-8” value [5, 9] was 132.92%, the “% IL-8” value [5, 10] was 125.05% and the “% IL-8” value [5, 11] was 109.24%.
In the case of `O=c1cc(CO)occ1O` [kojic acid, reference compound], the “% tyrosinase inhibition” value (tyrosinase [6]; 140 μg/mL) was 85.79%.

From US9725483B2, “Compounds for the treatment and/or care of the skin and/or mucous membranes and their use in cosmetic or pharmaceutical compositions” (LUBRIZOL ADVANCED MATERIALS, INC., priority 2012, dated 2017)
